Measurements taken from US4755526A, “Method of inhibiting aromatase” (Eli Lilly and Company, priority 1984, dated 1988).
Structures can show the parent of a compound that is named as a salt.

Assays:
estrogen synthesis = assay: Estrogen synthesis inhibition in rats (uterine weight and ovarian steroid concentrations); type: in vivo, female Wistar rats; conditions: for Mean Steroid Concentration, estradiol / Mean Steroid Concentration, estriol / Mean Steroid Concentration, estrone: ovaries; for Mean Uterine Weight: testosterone propionate-treated rats
Experimental: Test compounds were administered for seven days either daily by gavage in corn oil or as a component of the diet. Control animals received either corn oil or diet without the test compound. Beginning on the fourth day of the test, all animals treated with the test compound and one half of the control animals were given a subcutaneous injection of 1.0 mg of testosterone propionate in corn oil. The remaining control animals received only an equivalent volume of corn oil.
After two hours, the animals were killed by decapitation. Uteri were isolated, trimmed of extraneous connective tissue, and weighed. […] In the control animals treated with testosterone propionate, estrogens produced by aromatization stimulated the uterus resulting in an increase in weight.
The ovarian steroids were extracted with 1.5 ml of 9:1 (v/v) toluene/ethanol to which had been added 25 to 100 mcg each of unlabelled estradiol, estriol, and estrone, and approximately 1000 dpm of [^14 C]-estradiol. The samples were vortexed, centrifuged at 500×g for 10 minutes, and the organic phase was transferred to a conical vial. Two additional extractions were performed on the residue in the same way. The pooled organic extracts were evaporated for subsequent thin-layer chromatography.
Ovarian proteins were precipitated by the addition of 5.0 ml of ethanol to the remaining aqueous phase. After an overnight incubation at 4° C., the samples were centrifuged at 1500×g for 10 minutes. The supernatant was discarded, and the pellet was dissolved in 0.3N potassium hydroxide.
The organic residue from each above extraction was redissolved in 9:1 (v/v) dichloromethane/methanol. The solution of each sample was applied to separate silica gel thin layer chromatography plates which contained a fluorescent indicator. The plates were developed in the first dimension with 160:38:1.5:0.5 (v/v/v/v) dichloromethane/ethyl acetate/methanol/acetic acid to within 3 cm of the top of the plate. After air-drying, the plate was developed in the second dimension with 180:19:1 (v/v/v) dichloromethane/methanol/ammonium hydroxide. The plate was air-dried and viewed under 254 nm UV light.
The visible spots were marked and the plates were sprayed with primulin (0.001% in 4:1 v/v acetone/water) according to the method of Wright, J. Chromatography, 59, 220 (1971) which allowed for the identification of additional steroids under 365 nm UV light. The spots were scraped from the plate using a glass wool plugged Pasteur pipet attached to a vacuum line. The steroids were eluted directly into scintillation vials by the addition of 0.2 ml of dichloromethane followed by two washes each of 2.0 ml of methanol. The organic solvent was evaporated and 10.0 ml of scintillation fluid (Beckman Ready Solv-NA) was added to the vials. Samples were analyzed by liquid scintillation spectrometry. Corrections were made based on the recoveries of the [^14 C]-steroid. Steroid concentrations are expressed as femtomoles per milligram protein.

aromatase = biological target: T1, aromatase (Rattus norvegicus, UniProt P22443); assay: Aromatase inhibition in the rat ovarian microsome assay; type: biochemical; conditions: EC50: concentration required to achieve 50% inhibition of aromatase activity, substrate (androstenedione) concentration 0.1 μM
T1 construct: ovarian microsomes are obtained from rats treated with pregnant mares serum gonadotropin; from tissue; host or cells: ovarian microsomes of rats treated with pregnant mares serum gonadotropin
T1 sequence (P22443 1-508): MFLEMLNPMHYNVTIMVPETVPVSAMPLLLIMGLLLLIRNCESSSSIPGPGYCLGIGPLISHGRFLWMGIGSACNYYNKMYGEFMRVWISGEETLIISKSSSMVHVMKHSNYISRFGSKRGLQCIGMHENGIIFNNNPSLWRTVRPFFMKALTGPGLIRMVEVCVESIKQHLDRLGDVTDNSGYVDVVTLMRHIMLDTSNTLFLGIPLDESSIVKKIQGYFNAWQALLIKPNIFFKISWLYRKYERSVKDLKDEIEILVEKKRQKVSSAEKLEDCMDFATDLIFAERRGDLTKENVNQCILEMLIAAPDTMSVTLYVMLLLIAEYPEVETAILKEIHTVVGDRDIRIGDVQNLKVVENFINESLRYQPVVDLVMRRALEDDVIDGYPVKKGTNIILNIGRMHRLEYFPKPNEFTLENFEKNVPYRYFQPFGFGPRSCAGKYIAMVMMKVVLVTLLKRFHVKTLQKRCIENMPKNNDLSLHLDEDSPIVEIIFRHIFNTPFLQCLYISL
Experimental: In this test system, ovarian microsomes are obtained from rats treated with pregnant mares serum gonadotropin. Test compounds are added to reaction vials containing 0.1 μM 4-androstene-3,17-dione, 100,000 dpm 1,2[^3 H]-androstenedione, the microsomes and a NADPH generating system. The concentrations of the inhibitors tested ranged between 0.005 and 10 μM.

[1] = 200 ppm in feed (approximately 20 mg/kg/day)
[2] = 30 ppm in feed (approximately 3 mg/kg/day)
[3] = 300 ppm in feed (approximately 30 mg/kg/day)

## FC(F)(F)c1cccc(C(c2ccc(Cl)cc2)(c2cccnc2)n2cncn2)c1 (stereo not shown) [3-[(4-chlorophenyl)-1H--1,2,4-triazol-1-yl-(3-trifluoromethylphenyl)methyl]pyridine]
Estrogen synthesis; [1]
  Mean Steroid Concentration, estradiol: 0.88 femtomoles per milligram of protein
  Mean Steroid Concentration, estriol: 0.06 femtomoles per milligram of protein
  Mean Steroid Concentration, estrone: 0.01 femtomoles per milligram of protein
  Mean Uterine Weight: 159.2 mg
aromatase
  EC50: 98 nM

## C#CC(c1ccccc1)(c1ccccc1)n1ccnc1 [1-(1,1-diphenyl-2-propynyl)-1H--imidazole]
Estrogen synthesis; [2]
  Mean Steroid Concentration, estradiol: 1.05 femtomoles per milligram of protein
  Mean Steroid Concentration, estriol: 1.06 femtomoles per milligram of protein
  Mean Steroid Concentration, estrone: 0.00 femtomoles per milligram of protein
  Mean Uterine Weight: 212.3 mg
Estrogen synthesis; [3]
  Mean Steroid Concentration, estradiol: 1.01 femtomoles per milligram of protein
  Mean Steroid Concentration, estriol: 0.60 femtomoles per milligram of protein
  Mean Steroid Concentration, estrone: 0.00 femtomoles per milligram of protein
  Mean Uterine Weight: 137.6 mg
aromatase
  EC50: 18 nM

## Cc1nccn1C(c1ccc(Cl)cc1)(c1ccc(Cl)cc1)c1cccnc1 [3-[bis(4-chlorophenyl)(2-methyl-1H--imidazol-1-yl)methyl]pyridine]
Estrogen synthesis; [1]
  Mean Steroid Concentration, estradiol: 0.89 femtomoles per milligram of protein
  Mean Steroid Concentration, estriol: 0.38 femtomoles per milligram of protein
  Mean Steroid Concentration, estrone: 0.06 femtomoles per milligram of protein
  Mean Uterine Weight: 125.8 mg
aromatase
  EC50: < 50 nM

## CCOc1ccccc1C(C1CCCCC1)n1ccnc1 (stereo not shown) [1-[cyclohexyl(2-ethoxyphenyl)methyl]-1H--imidazole hydrochloride]
Estrogen synthesis; [2]
  Mean Steroid Concentration, estradiol: 1.30 femtomoles per milligram of protein
  Mean Steroid Concentration, estriol: 0.36 femtomoles per milligram of protein
  Mean Steroid Concentration, estrone: 0.24 femtomoles per milligram of protein
  Mean Uterine Weight: 149.0 mg
Estrogen synthesis; [3]
  Mean Steroid Concentration, estradiol: 1.11 femtomoles per milligram of protein
  Mean Steroid Concentration, estriol: 0.28 femtomoles per milligram of protein
  Mean Steroid Concentration, estrone: 0.20 femtomoles per milligram of protein
  Mean Uterine Weight: 96.6 mg
aromatase
  EC50: 22 nM

## Clc1ccc(C(c2ccc(Cl)cc2)(c2cccnc2)n2cncn2)cc1 [3-[bis(4-chlorophenyl)-1H--1,2,4-triazol-1-ylmethyl]pyridine]
Estrogen synthesis; [2]
  Mean Steroid Concentration, estradiol: 1.83 femtomoles per milligram of protein
  Mean Steroid Concentration, estriol: 0.36 femtomoles per milligram of protein
  Mean Steroid Concentration, estrone: 0.06 femtomoles per milligram of protein
  Mean Uterine Weight: 150.8 mg
Estrogen synthesis; [3]
  Mean Steroid Concentration, estradiol: 1.18 femtomoles per milligram of protein
  Mean Steroid Concentration, estriol: 0.13 femtomoles per milligram of protein
  Mean Steroid Concentration, estrone: 0.06 femtomoles per milligram of protein
  Mean Uterine Weight: 85.6 mg
aromatase
  EC50: 60 nM

## O=[N+]([O-])c1ccc(Cn2ccnc2)cc1 [1-[(4-nitrophenyl)methyl]-1H--imidazole hydrochloride]
Estrogen synthesis; [2]
  Mean Steroid Concentration, estradiol: 1.16 femtomoles per milligram of protein
  Mean Steroid Concentration, estriol: 0.80 femtomoles per milligram of protein
  Mean Steroid Concentration, estrone: 0.88 femtomoles per milligram of protein
  Mean Uterine Weight: 185.3 mg
Estrogen synthesis; [3]
  Mean Steroid Concentration, estradiol: 0.79 femtomoles per milligram of protein
  Mean Steroid Concentration, estriol: 1.11 femtomoles per milligram of protein
  Mean Steroid Concentration, estrone: 1.19 femtomoles per milligram of protein
  Mean Uterine Weight: 147.2 mg
aromatase
  EC50: 29 nM

## c1ccc(C(c2ccccc2)(c2ccccc2)n2ccnc2)cc1 [1-tritylimidazole]
Estrogen synthesis; [2]
  Mean Steroid Concentration, estradiol: 0.75 femtomoles per milligram of protein
  Mean Steroid Concentration, estriol: 0.44 femtomoles per milligram of protein
  Mean Steroid Concentration, estrone: 0.23 femtomoles per milligram of protein
  Mean Uterine Weight: 135.0 mg
Estrogen synthesis; [3]
  Mean Steroid Concentration, estradiol: 0.64 femtomoles per milligram of protein
  Mean Steroid Concentration, estriol: 0.28 femtomoles per milligram of protein
  Mean Steroid Concentration, estrone: 0.21 femtomoles per milligram of protein
  Mean Uterine Weight: 122.6 mg
aromatase
  EC50: 32 nM

## FC(F)(F)c1cccc(C(c2ccc(Cl)cc2)(c2cccnc2)n2ccnc2)c1 (stereo not shown) [3-[(4-chlorophenyl)-1H--imidazol-1-yl-(3-trifluoromethylphenyl)methyl]pyridine]
Estrogen synthesis; [1]
  Mean Steroid Concentration, estradiol: 0.70 femtomoles per milligram of protein
  Mean Steroid Concentration, estriol: 0.27 femtomoles per milligram of protein
  Mean Steroid Concentration, estrone: 0.06 femtomoles per milligram of protein
  Mean Uterine Weight: 122.6 mg
aromatase
  EC50: < 50 nM

## COc1ccc(C(c2ccccc2)(c2ccc(OC)cc2)n2ccnc2)cc1 [1-[α,α-bis(4-methoxyphenyl)benzyl]imidazole]
aromatase
  EC50: 64 nM

## Fc1ccc(C(c2ccc(Cl)cc2)n2cnnc2)cc1 (stereo not shown) [4-[(4-chlorophenyl)(4-fluorophenyl)methyl]-4H--1,2,4-triazole]
aromatase
  EC50: 80 nM

## Fc1ccc(C(c2ccc(Br)cc2)n2cncn2)cc1 (stereo not shown) [1-[(4-bromophenyl)(4-fluorophenyl)methyl]-1H--1,2,4-triazole]
aromatase
  EC50: < 50 nM

## Cl.Clc1cccc(Cn2ccnc2)c1Cl [1-(2,3-dichlorobenzyl)imidazole hydrochloride]
Estrogen synthesis; [2]
  Mean Steroid Concentration, estradiol: 2.09 femtomoles per milligram of protein
  Mean Steroid Concentration, estriol: 0.78 femtomoles per milligram of protein
  Mean Steroid Concentration, estrone: 0.34 femtomoles per milligram of protein
  Mean Uterine Weight: 139.4 mg
Estrogen synthesis; [3]
  Mean Steroid Concentration, estradiol: 1.12 femtomoles per milligram of protein
  Mean Steroid Concentration, estriol: 0.41 femtomoles per milligram of protein
  Mean Steroid Concentration, estrone: 0.23 femtomoles per milligram of protein
  Mean Uterine Weight: 127.3 mg
aromatase
  EC50: 87 nM

## Clc1ccc(C(c2ccccc2)(c2ccc(Cl)cc2)n2cncn2)cc1 [1-[bis(4-chlorophenyl)phenylmethyl]-1H--1,2,4-triazole]
aromatase
  EC50: 110 nM

## Clc1ccc(C(c2cccnc2)(c2ccccc2Cl)n2ccnc2)cc1 (stereo not shown) [3-[(2-chlorophenyl)(4-chlorophenyl)-1H--imidazol-1-ylmethyl]pyridine]
aromatase
  EC50: 86 nM

## Clc1ccc(Cl)c(C(c2cccnc2)(c2cc(Cl)ccc2Cl)n2ccnc2)c1 [3-(bis[2,5-dichlorophenyl]-1H--imidazol-1-ylmethyl)pyridine]
aromatase
  EC50: 210 nM

## Clc1ccccc1C(c1cccnc1)(c1ccccc1Cl)n1cncn1 [3-[bis(2-chlorophenyl)-1H--1,2,4-triazol-1-ylmethyl]pyridine]
aromatase
  EC50: 720 nM

## FC(F)(F)c1cccc(Cn2ccnc2)c1 [1-[(3-trifluoromethylphenyl)methyl]-1H--imidazole hydrochloride]
aromatase
  EC50: 390 nM

## Fc1ccc(C(c2ccccc2)(c2ccc(F)cc2)n2cncn2)cc1 [1-[bis(4-fluorophenyl)phenylmethyl]-1H--1,2,4-triazole]
aromatase
  EC50: 80 nM

## Clc1cccc(Cl)c1COc1ccccc1Cn1ccnc1 [1-[(2-[2,6-dichlorobenzyloxy]phenyl)methyl]-1H--imidazole nitrate]
aromatase
  EC50: 125 nM

## Clc1cccc(Cl)c1Cn1ccnc1 [1-[(2,6-dichlorophenyl)methyl]-1H--imidazole hydrochloride]
aromatase
  EC50: > 5000 nM

## Clc1ccc(C(c2ccc(Cl)cc2)(c2ccc(Cl)cc2)n2ccnc2)cc1 [1-tris(4-chlorophenyl)methyl-1H--imidazole]
aromatase
  EC50: 270 nM

## CCOc1ccccc1C(c1ccccc1)n1ccnc1 (stereo not shown) [1-[(2-ethoxyphenyl)phenylmethyl]-1H--imidazole nitrate]
aromatase
  EC50: 100 nM

## O=[N+]([O-])c1ccccc1Cn1ccnc1 [1-[(2-nitrophenyl)methyl]-1H--imidazole hydrochloride]
aromatase
  EC50: 3100 nM

## CCOc1ccccc1C(C)n1ccnc1 (stereo not shown) [1-[1-(2-ethoxyphenyl)ethyl]-1H--imidazole nitrate]
aromatase
  EC50: < 50 nM

## C=C(c1ccccc1OCc1cccc(Cl)c1)n1ccnc1 [1-[1-(2-[(3-chlorophenyl)methoxy]phenyl)ethenyl]-1H--imidazole hydrochloride]
aromatase
  EC50: 165 nM

## c1ccc(-c2ccc(Cn3ccnc3)cc2)cc1 [1-[(1,1'-biphenyl)-4-ylmethyl]-1H--imidazole hydrochloride]
aromatase
  EC50: 1650 nM

## Clc1ccc(Cl)c(Cn2ccnc2)c1 [1-[(2,5-dichlorophenyl)methyl]-1H--imidazole hydrochloride]
aromatase
  EC50: 160 nM

## Cc1nccn1C(c1ccc(Cl)cc1)(c1ccc(Cl)cc1)c1ccc(Cl)cc1 [1-tris(4-chlorophenyl)methyl-2-methyl-1H--imidazole]
aromatase
  EC50: 270 nM

## CSc1ccc(C(c2ccccc2)(c2cccnc2)n2ccnc2)cc1 (stereo not shown) [3-(1H--imidazol-1-yl-[4-(methylthio)phenyl]phenylmethyl)pyridine]
aromatase
  EC50: < 50 nM

## Clc1ccc(Cn2ccnc2)cc1Cl [1-[(3,4-dichlorophenyl)methyl]-1H--imidazole hydrochloride]
aromatase
  EC50: 320 nM

## c1ccc(C(c2ccccc2)n2cncn2)cc1 [1-diphenylmethyl-1H--1,2,4-triazole]
aromatase
  EC50: > 5000 nM
